Key:
[1] = Plasma pharmacokinetics in patients; type: in vivo, human; conditions: for AUC / Cmax / half-life: human, plasma
[2] = system: HSP70; test: Soluble HSP70 protein in patient plasma by ELISA; type: in vivo, human
[3] = system: HSP70; test: HSP70 protein in patient PBMCs by western blot; type: in vivo, human; conditions: after onalespib alone (C0D4), all dose levels
[4] = IV, days 1, 4, 8, 11 of 21-day cycle, with AT7519 21 mg/m^2 (DL2)
[5] = system: HSP90; conditions: cited from earlier work
[6] = twice-weekly schedule, monotherapy; cited from earlier work
[7] = All dose levels, C0D1, onalespib alone, n = 27, geometric mean
[8] = All dose levels, C1D1, onalespib with AT7519, n = 24, geometric mean
[9] = All dose levels, C1D11, onalespib with AT7519, n = 16, geometric mean
[10] = DL1, C0D1, onalespib 40 mg/m^2 IV alone, n = 5, geometric mean
[11] = DL1, C1D1, onalespib 40 mg/m^2 with AT7519 21 mg/m^2, n = 4, geometric mean
[12] = DL1, C1D11, onalespib 40 mg/m^2 with AT7519 21 mg/m^2, n = 2, geometric mean
[13] = DL2, C0D1, onalespib 80 mg/m^2 IV alone, n = 17, geometric mean
[14] = DL2, C1D1, onalespib 80 mg/m^2 with AT7519 21 mg/m^2, n = 16, geometric mean
[15] = DL2, C1D11, onalespib 80 mg/m^2 with AT7519 21 mg/m^2, n = 11, geometric mean
[16] = DL3, C0D1, onalespib 80 mg/m^2 IV alone, n = 5, geometric mean
[17] = DL3, C1D1, onalespib 80 mg/m^2 with AT7519 27 mg/m^2, n = 4, geometric mean
[18] = DL3, C1D11, onalespib 80 mg/m^2 with AT7519 27 mg/m^2, n = 3, geometric mean

## CC(C)c1cc(C(=O)N2Cc3ccc(CN4CCN(C)CC4)cc3C2)c(O)cc1O [onalespib, (2,4-dihydroxy-5-isopropylphenyl)-[5-(4-methylpiperazin-1-ylmethyl)-1,3-dihydroisoindol-2-yl]methanone]
[1]; [7]
  CL: 52.2 L/h/m^2
  Vz: 754 L/m^2
[1]; [8]
  CL: 58.4 L/h/m^2
  Vz: 725 L/m^2
[1]; [9]
  CL: 61.0 L/h/m^2
  Vz: 706 L/m^2
[1]; [10]
  CL: 51.3 L/h/m^2
  Vz: 742 L/m^2
[1]; [11]
  CL: 64.4 L/h/m^2
  Vz: 891 L/m^2
[1]; [12]
  CL: 65.6 L/h/m^2
  Vz: 855 L/m^2
[1]; [13]
  CL: 53.8 L/h/m^2
  Vz: 804 L/m^2
[1]; [14]
  CL: 57.5 L/h/m^2
  Vz: 721 L/m^2
[1]; [15]
  CL: 62.5 L/h/m^2
  Vz: 743 L/m^2
[1]; [16]
  CL: 47.7 L/h/m^2
  Vz: 617 L/m^2
[1]; [17]
  CL: 56.7 L/h/m^2
  Vz: 606 L/m^2
[1]; [18]
  CL: 53.1 L/h/m^2
  Vz: 516 L/m^2
[1]; intravenous, AUC, DL1, C1D1, onalespib 40 mg/m^2 with AT7519 21 mg/m^2, n = 4, geometric mean
  AUC: 621 ng·h/mL
[1]; intravenous, AUC, DL1, C1D11, onalespib 40 mg/m^2 with AT7519 21 mg/m^2, n = 2, geometric mean
  AUC: 610 ng·h/mL
[1]; intravenous, AUC, DL2, C1D1, onalespib 80 mg/m^2 with AT7519 21 mg/m^2, n = 16, geometric mean
  AUC: 1390 ng·h/mL
[1]; intravenous, AUC, DL2, C1D11, onalespib 80 mg/m^2 with AT7519 21 mg/m^2, n = 11, geometric mean
  AUC: 1280 ng·h/mL
[1]; intravenous, AUC, DL3, C1D1, onalespib 80 mg/m^2 with AT7519 27 mg/m^2, n = 4, geometric mean
  AUC: 1410 ng·h/mL
[1]; intravenous, AUC, DL3, C1D11, onalespib 80 mg/m^2 with AT7519 27 mg/m^2, n = 3, geometric mean
  AUC: 1510 ng·h/mL
[1]; intravenous, Cmax, DL1, C1D1, onalespib 40 mg/m^2 with AT7519 21 mg/m^2, n = 4, geometric mean
  Cmax: 146 ng/mL
[1]; intravenous, Cmax, DL1, C1D11, onalespib 40 mg/m^2 with AT7519 21 mg/m^2, n = 2, geometric mean
  Cmax: 155 ng/mL
[1]; intravenous, Cmax, DL2, C1D1, onalespib 80 mg/m^2 with AT7519 21 mg/m^2, n = 16, geometric mean
  Cmax: 331 ng/mL
[1]; intravenous, Cmax, DL2, C1D11, onalespib 80 mg/m^2 with AT7519 21 mg/m^2, n = 11, geometric mean
  Cmax: 355 ng/mL
[1]; intravenous, Cmax, DL3, C1D1, onalespib 80 mg/m^2 with AT7519 27 mg/m^2, n = 4, geometric mean
  Cmax: 331 ng/mL
[1]; intravenous, Cmax, DL3, C1D11, onalespib 80 mg/m^2 with AT7519 27 mg/m^2, n = 3, geometric mean
  Cmax: 424 ng/mL
[1]; intravenous, t1/2,z, All dose levels, C0D1, onalespib alone, n = 27, geometric mean
  half-life: 600 min
[1]; intravenous, t1/2,z, DL1, C1D1, onalespib 40 mg/m^2 with AT7519 21 mg/m^2, n = 4, geometric mean
  half-life: 576 min
[1]; intravenous, t1/2,z, DL1, C1D11, onalespib 40 mg/m^2 with AT7519 21 mg/m^2, n = 2, geometric mean
  half-life: 564 min
[1]; intravenous, t1/2,z, DL2, C1D1, onalespib 80 mg/m^2 with AT7519 21 mg/m^2, n = 16, geometric mean
  half-life: 522 min
[1]; intravenous, t1/2,z, DL2, C1D11, onalespib 80 mg/m^2 with AT7519 21 mg/m^2, n = 11, geometric mean
  half-life: 492 min
[1]; intravenous, t1/2,z, DL3, C1D1, onalespib 80 mg/m^2 with AT7519 27 mg/m^2, n = 4, geometric mean
  half-life: 444 min
[1]; intravenous, t1/2,z, DL3, C1D11, onalespib 80 mg/m^2 with AT7519 27 mg/m^2, n = 3, geometric mean
  half-life: 402 min
[1]; iv, 40 mg/m2, AUC, DL1, C0D1, onalespib 40 mg/m^2 IV alone, n = 5, geometric mean
  AUC: 780 ng·h/mL
[1]; iv, 40 mg/m2, Cmax, DL1, C0D1, onalespib 40 mg/m^2 IV alone, n = 5, geometric mean
  Cmax: 193 ng/mL
[1]; iv, 40 mg/m2, t1/2,z, DL1, C0D1, onalespib 40 mg/m^2 IV alone, n = 5, geometric mean
  half-life: 600 min
[1]; iv, 80 mg/m2, AUC, DL2, C0D1, onalespib 80 mg/m^2 IV alone, n = 17, geometric mean
  AUC: 1490 ng·h/mL
[1]; iv, 80 mg/m2, AUC, DL3, C0D1, onalespib 80 mg/m^2 IV alone, n = 5, geometric mean
  AUC: 1680 ng·h/mL
[1]; iv, 80 mg/m2, Cmax, DL2, C0D1, onalespib 80 mg/m^2 IV alone, n = 17, geometric mean
  Cmax: 349 ng/mL
[1]; iv, 80 mg/m2, Cmax, DL3, C0D1, onalespib 80 mg/m^2 IV alone, n = 5, geometric mean
  Cmax: 487 ng/mL
[1]; iv, 80 mg/m2, t1/2,z, DL2, C0D1, onalespib 80 mg/m^2 IV alone, n = 17, geometric mean
  half-life: 624 min
[1]; iv, 80 mg/m2, t1/2,z, DL3, C0D1, onalespib 80 mg/m^2 IV alone, n = 5, geometric mean
  half-life: 540 min
[2]; after onalespib alone (C0D4), all dose levels
  HSP70 protein expression in plasma: Increased HSP70 protein expression
[2]; patient with palate adenocarcinoma (confirmed PR), after onalespib alone
  Soluble HSP70 expression in plasma: increase in soluble HSP70 expression
[3]
  HSP70 protein expression in PBMCs: Increased HSP70 protein expression
[4]
  Maximally tolerated dose (MTD) of onalespib in the combination: 80 mg/m^2
[5]
  IC50: 0.7 nM
[6]
  RP2D as individual agent: 120 mg/m^2

From paper PMC7954579 (Cancer chemotherapy and pharmacology, 2020)
